This is an account of results in PubChem BioAssay AID504844 (National Center for Advancing Translational Sciences (NCATS), 2011).

The subject of the series is mouse plasma stability, LC-MS/MS, 48 h. Briefly: Inhibitors of HPGD: Mouse Plasma Stability Profiling. The following applies: at 2 µM; stronger effect = higher value. The source says:
Human 15-Hydroxyprostaglandin dehydrogenase (HPGD) catalyzes the inactivation of prostaglandin E2, and plays a major role in cancer biology by antagonizing the oncogenic potential of cyclooxygenase type 2 (COX2). Follow-up assays are available, based on absorbance/fluorescence increase of NADH with the substrate 15-OH prostaglandin E2. Please see summary AID for more information on this project. After qHTS, hits were confirmed in follow-up assays, and leads were optimized through SAR. The resulting lead compound was further characterized through a battery ADME-Tox experiments, and this assay describes its stability in mouse plasma. NIH Chemical Genomics Center [NCGC] NIH Molecular Libraries Probe Centers Network [MLPCN] MLPCN Grant: MH084681-02 Assay Submitter (PI): Udo Oppermann, Structural Genomics Consortium
2microM of compound is incubated in mouse plasma, the reference compound is procaine. Compounds are incubated at 37 deg C for the pre-determined time periods and the when aliquots are removed. Samples are analyzed with LC-MS/MS.

As for `Cc1cccc(-n2cnc3cc(C(=O)N4CCCCC4)ccc32)c1`, the percent remaining was 98%. Under `Cc1cc(-c2nnc3n2CCCCC3)c(C)n1-c1ccccc1` stands 98%.
